Test results taken from US20210070748A1, “INHIBITORS OF BRUTONS TYROSINE KINASE” (Pharmacyclics LLC, priority 2015, published 2021).

Tests used:
JAK3 = biological target: T1, JAK3 (Homo sapiens, UniProt P52333); test: Inhibition of a panel of kinases, in vitro HotSpot kinase assay: JAK3; assay type: biochemical; details: D-compounds panel data; 1 μM ATP; read-out: IC50 JAK3
T1 sequence (P52333 1-1124): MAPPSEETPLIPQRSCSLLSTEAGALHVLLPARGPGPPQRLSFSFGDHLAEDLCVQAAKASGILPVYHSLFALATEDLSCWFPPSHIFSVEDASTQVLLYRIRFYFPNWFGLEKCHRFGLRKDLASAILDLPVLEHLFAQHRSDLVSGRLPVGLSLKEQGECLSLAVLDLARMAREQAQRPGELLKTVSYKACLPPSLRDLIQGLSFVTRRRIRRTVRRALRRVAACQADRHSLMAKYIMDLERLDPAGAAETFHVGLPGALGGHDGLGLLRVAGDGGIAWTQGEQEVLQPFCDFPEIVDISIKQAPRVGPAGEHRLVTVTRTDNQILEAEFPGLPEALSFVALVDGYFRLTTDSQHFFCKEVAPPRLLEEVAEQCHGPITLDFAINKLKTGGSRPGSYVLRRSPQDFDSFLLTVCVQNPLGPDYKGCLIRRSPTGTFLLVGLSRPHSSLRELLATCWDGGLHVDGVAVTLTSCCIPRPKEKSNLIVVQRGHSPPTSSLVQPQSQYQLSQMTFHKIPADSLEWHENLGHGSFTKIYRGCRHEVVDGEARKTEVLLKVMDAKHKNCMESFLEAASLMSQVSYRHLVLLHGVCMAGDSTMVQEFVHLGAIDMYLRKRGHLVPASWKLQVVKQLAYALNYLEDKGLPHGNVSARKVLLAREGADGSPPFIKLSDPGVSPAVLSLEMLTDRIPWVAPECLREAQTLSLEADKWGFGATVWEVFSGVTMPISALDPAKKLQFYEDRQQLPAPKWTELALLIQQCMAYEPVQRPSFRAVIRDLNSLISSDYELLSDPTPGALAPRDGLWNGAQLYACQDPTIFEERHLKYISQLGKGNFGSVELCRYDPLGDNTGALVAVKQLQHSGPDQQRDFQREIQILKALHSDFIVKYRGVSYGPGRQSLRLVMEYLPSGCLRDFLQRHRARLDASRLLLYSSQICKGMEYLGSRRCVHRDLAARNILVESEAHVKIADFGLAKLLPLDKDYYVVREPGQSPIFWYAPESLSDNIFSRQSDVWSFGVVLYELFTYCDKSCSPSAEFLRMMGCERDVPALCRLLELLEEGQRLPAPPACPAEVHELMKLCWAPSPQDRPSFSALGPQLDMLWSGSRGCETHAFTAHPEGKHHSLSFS

LCK = LCK (Homo sapiens, UniProt P06239); test: Inhibition of a panel of kinases, in vitro HotSpot kinase assay: LCK; assay type: biochemical; details: D-compounds panel data; 1 μM ATP; read-out: IC50 LCK
LCK, sequence (P06239 whole entry): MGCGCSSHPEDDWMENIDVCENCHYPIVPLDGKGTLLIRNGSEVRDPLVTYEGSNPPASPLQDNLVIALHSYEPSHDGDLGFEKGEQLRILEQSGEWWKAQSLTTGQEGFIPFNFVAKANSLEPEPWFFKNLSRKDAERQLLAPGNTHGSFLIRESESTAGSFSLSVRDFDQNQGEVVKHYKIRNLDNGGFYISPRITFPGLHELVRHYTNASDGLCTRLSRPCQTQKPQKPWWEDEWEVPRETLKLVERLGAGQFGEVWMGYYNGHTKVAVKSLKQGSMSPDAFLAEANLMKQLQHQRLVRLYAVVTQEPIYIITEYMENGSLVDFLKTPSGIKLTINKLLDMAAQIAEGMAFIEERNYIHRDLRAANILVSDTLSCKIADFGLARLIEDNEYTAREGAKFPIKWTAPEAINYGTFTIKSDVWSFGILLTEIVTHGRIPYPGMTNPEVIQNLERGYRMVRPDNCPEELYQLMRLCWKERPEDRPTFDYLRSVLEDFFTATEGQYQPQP

Row | IC50 (JAK3) | IC50 (LCK) | SMILES
1 | 1000 to 10000 nM | 10 to 100 nM | C[C@H]1CC[C@@H](NC(=O)c2ccc(C3CC3)cc2)CN1c1cnc(C(N)=O)c(Nc2ccc(N3CCN(C)CC3)c(F)c2)n1 [Example D-150, 5-[(2S,5R)-5-(4-cyclopropylbenzamido)-2-methylpiperidin-1-yl]-3-{[3-fluoro-4-(4-methylpiperazin-1-yl)phenyl]amino}pyrazine-2-carboxamide]
2 | 100 to 1000 nM | 100 to 1000 nM | C[C@H]1CC[C@@H](NC(=O)c2ccc(C3CC3)cc2)CN1c1cnc(C(N)=O)c(Nc2ccc(N3CCN(C)CC3)cc2)n1 [Example D-154, 5-[(2S,5R)-5-(4-cyclopropylbenzamido)-2-methylpiperidin-1-yl]-3-{[4-(4-methylpiperazin-1-yl)phenyl]amino}pyrazine-2-carboxamide]
3 | 100 to 1000 nM | 10 to 100 nM | C[C@H]1CC[C@@H](NC(=O)c2ccc(C(C)(C)O)cc2)CN1c1nnc(C(N)=O)c(Nc2cnn(C)c2)n1 [Example D-157, 3-[(2S,5R)-5-[4-(2-hydroxypropan-2-yl)benzamido]-2-methylpiperidin-1-yl]-5-[(1-methyl-1H-pyrazol-4-yl)amino]-1,2,4-triazine-6-carboxamide]
4 | 100 to 1000 nM | < 10 nM | C[C@@H]1[C@H](NC(=O)N(C)C)CCCN1c1cnc(C(N)=O)c(Nc2cc(C3CCN(C4CCCC4)CC3)ns2)n1 [Example D-163, 3-{[3-(1-cyclopentylpiperidin-4-yl)-1,2-thiazol-5-yl]amino}-5-[(2R,3R)-3-[(dimethylcarbamoyl)amino]-2-methylpiperidin-1-yl]pyrazine-2-carboxamide]
5 | 100 to 1000 nM | 100 to 1000 nM | Cc1cc(Nc2nc(N3CCCC(c4ncc(-c5ccccc5)[nH]4)C3)cnc2C(N)=O)sn1 [Example D-164, 3-[(3-methyl-1,2-thiazol-5-yl)amino]-5-[3-(4-phenyl-3H-imidazol-2-yl)piperidin-1-yl]pyrazine-2-carboxamide]
6 | > 10000 nM | > 10000 nM | NC(=O)c1ncc(N2CCC[C@@H](n3ccc4cc(C5CC5)ccc4c3=O)C2)nc1Nc1ccc2ncccc2c1 [Example D-168, 5-[(3R)-3-(6-cyclopropyl-1-oxo-1,2-dihydroisoquinolin-2-yl)piperidin-1-yl]-3-[(quinolin-6-yl)amino]pyrazine-2-carboxamide]

Continued, compound first:

Row | SMILES | IC50 (JAK3) | IC50 (LCK)
7 | C[C@@H]1CC[C@H](NC(=O)c2ccc(C3CC3)cc2)CN1c1cnc(C(N)=O)c(Nc2ccc(N3CCN(C)CC3)c(F)c2)n1 [Example D-149, 5-[(2R,5 S)-5-(4-cyclopropylbenzamido)-2-methylpiperidin-1-yl]-3-{[3-fluoro-4-(4-methylpiperazin-1-yl)phenyl]amino}pyrazine-2-carboxamide] | 1000 to 10000 nM | 100 to 1000 nM
8 | C[C@@H]1CC[C@H](NC(=O)N(C)C)CN1c1cnc(C(N)=O)c(Nc2cnn(C)c2)n1 [Example D-151, 5-[(2R,5S)-5-[(dimethylcarbamoyl)amino]-2-methylpiperidin-1-yl]-3-[(1-methyl-1H-pyrazol-4-yl)amino]pyrazine-2-carboxamide] | > 10000 nM | 10 to 100 nM
9 | C[C@H]1CC[C@@H](NC(=O)N(C)C)CN1c1cnc(C(N)=O)c(Nc2cnn(C)c2)n1 [Example D-152, 5-[(2S,5R)-5-[(dimethylcarbamoyl)amino]-2-methylpiperidin-1-yl]-3-[(1-methyl-1H-pyrazol-4-yl)amino]pyrazine-2-carboxamide] | 1000 to 10000 nM | 1000 to 10000 nM
10 | C[C@@H]1CC[C@H](NC(=O)c2ccc(C3CC3)cc2)CN1c1cnc(C(N)=O)c(Nc2ccc(N3CCN(C)CC3)cc2)n1 [Example D-153, 5-[(2R,5S)-5-(4-cyclopropylbenzamido)-2-methylpiperidin-1-yl]-3-{[4-(4-methylpiperazin-1-yl)phenyl]amino}pyrazine-2-carboxamide] | 100 to 1000 nM | 10 to 100 nM
11 | CN(C)c1ccc2c(=O)n([C@@H]3CCCN(c4cnc(C(N)=O)c(Nc5cnn(C)c5)n4)C3)ccc2c1 [Example D-155, 5-[(3R)-3-[6-(dimethylamino)-1-oxo-1,2-dihydroisoquinolin-2-yl]piperidin-1-yl]-3-[(1-methyl-1H-pyrazol-4-yl)amino]pyrazine-2-carboxamide] | 100 to 1000 nM | 100 to 1000 nM
12 | CN(C)c1ccc2c(c1)CCN([C@@H]1CCCN(c3cnc(C(N)=O)c(Nc4cnn(C)c4)n3)C1)C2=O [Example D-156, 5-[(3R)-3-[6-(dimethylamino)-1-oxo-1,2,3,4-tetrahydroisoquinolin-2-yl]piperidin-1-yl]-3-[(1-methyl-1H-pyrazol-4-yl)amino]pyrazine-2-carboxamide] | 1000 to 10000 nM | 1000 to 10000 nM
13 | Cc1cc(Nc2nc(N3CCC[C@@H](NC(=O)c4ccc(C(C)(C)O)cc4)C3)cnc2C(N)=O)sn1 [Example D-158, 5-[(3R)-3-[4-(2-hydroxypropan-2-yl)benzamido]piperidin-1-yl]-3-[(3-methyl-1,2-thiazol-5-yl)amino]pyrazine-2-carboxamide] | 1000 to 10000 nM | 100 to 1000 nM
14 | Cc1cc(Nc2nc(N3CCC[C@@H](NC(=O)c4ccc(C(C)(C)O)cc4)[C@H]3C)cnc2C(N)=O)sn1 [Example D-159, 5-[(2R,3R)-3-[4-(2-hydroxypropan-2-yl)benzamido]-2-methylpiperidin-1-yl]-3-[(3-methyl-1,2-thiazol-5-yl)amino]pyrazine-2-carboxamide] | 100 to 1000 nM | 10 to 100 nM
15 | C[C@@H]1[C@H](NC(=O)c2ccc(C(C)(C)O)c(F)c2)CCCN1c1cnc(C(N)=O)c(Nc2cnn(C)c2)n1 [Example D-160, 5-[(2R,3R)-3-[3-fluoro-4-(2-hydroxypropan-2-yl)benzamido]-2-methylpiperidin-1-yl]-3-[(1-methyl-1H-pyrazol-4-yl)amino]pyrazine-2-carboxamide] | 100 to 1000 nM | 10 to 100 nM
16 | COC(C)(C)c1ccc(C(=O)N[C@@H]2CCCN(c3cnc(C(N)=O)c(Nc4cnn(C)c4)n3)[C@@H]2C)cc1 [Example D-161, 5-[(2R,3R)-3-[4-(2-methoxypropan-2-yl)benzamido]-2-methylpiperidin-1-yl]-3-[(1-methyl-1H-pyrazol-4-yl)amino]pyrazine-2-carboxamide] | 1000 to 10000 nM | 100 to 1000 nM
17 | C[C@@H]1[C@H](NC(=O)N(C)C)CCCN1c1cnc(C(N)=O)c(Nc2cc(C3CCOCC3)ns2)n1 [Example D-162, 5-[(2R,3R)-3-[(dimethylcarbamoyl)amino]-2-methylpiperidin-1-yl]-3-{[3-(oxan-4-yl)-1,2-thiazol-5-yl]amino}pyrazine-2-carboxamide] | 1000 to 10000 nM | 10 to 100 nM
18 | CN1CCN(c2ccc(Nc3nc(N4CCC[C@@H](n5ccc6cc(C7CC7)ccc6c5=O)C4)cnc3C(N)=O)cc2)CC1 [Example D-165, 5-[(3R)-3-(6-cyclopropyl-1-oxo-1,2-dihydroisoquinolin-2-yl)piperidin-1-yl]-3-{[4-(4-methylpiperazin-1-yl)phenyl]amino}pyrazine-2-carboxamide] | 1000 to 10000 nM | 100 to 1000 nM
19 | Cc1cc(Nc2nc(N3CCC[C@@H](n4ccc5cc(C6CC6)ccc5c4=O)C3)cnc2C(N)=O)sn1 [Example D-166, 5-[(3R)-3-(6-cyclopropyl-1-oxo-1,2-dihydroisoquinolin-2-yl)piperidin-1-yl]-3-[(3-methyl-1,2-thiazol-5-yl)amino]pyrazine-2-carboxamide] | > 10000 nM | > 10000 nM
20 | CN1CCN(Cc2ccc(Nc3nc(N4CCC[C@@H](n5ccc6cc(C7CC7)ccc6c5=O)C4)cnc3C(N)=O)cc2)CC1 [Example D-167, 5-[(3R)-3-(6-cyclopropyl-1-oxo-1,2-dihydroisoquinolin-2-yl)piperidin-1-yl]-3-({4-[(4-methylpiperazin-1-yl)methyl]phenyl}amino)pyrazine-2-carboxamide] | 100 to 1000 nM | 100 to 1000 nM
